The record followed here is PubChem BioAssay AID1996.

In brackets after ≈: the same amount, converted by molar mass. A value given as a limit tells only on which side of the number the result lay.

A word on the kinetic solubility: it is solubility judged after dilution from a stock solution rather than from solid.

The conditions of the data set: buffer; pH 7.4; 200.0 µM.
The molecule `COc1ccc(C(=O)N[C@H](C(=O)NCCc2ccc3c(c2)OCCO3)C(C)C)cc1` showed a solubility (kinetic) of 19.7 µg/mL (≈ 47.8 µM).
In turn, `O=Cc1c(NCCN2CCOCC2)c2ccccc2[nH]c1=O` yielded a kinetic solubility greater than 45.2 µg/mL.
In the case of `COc1ccc2[nH]c(=O)c(CNc3ccc(C)cc3C)cc2c1`, the kinetic solubility turned out to be 41.5 µg/mL (≈ 135 µM).
In turn, `CN(C(=O)c1ccc2nccnc2c1)C1CCCCC1` had a kinetic solubility greater than 40.4 µg/mL.
In turn, `ClC1(Cl)CC1CSc1nc2ccccc2[nH]1` (stereo not given) yielded a kinetic solubility of 39.8 µg/mL (≈ 146 µM).
`Cc1ccc(C)c(S(=O)(=O)NCCC(=O)N2CCCC(C(N)=O)C2)c1` (stereo not given) came in with a kinetic solubility greater than 55.1 µg/mL.
The same measure for `CCN(CC)C(=O)CN1CCC(c2nc3cc(C)c(C)cc3[nH]2)CC1`: greater than 51.4 µg/mL.
Take `COc1ccc(/C=C2\SC(N3CCCCC3)=NC2=O)cc1`: the kinetic solubility came out at 1.3 µg/mL (≈ 4.3 µM).
`C=CCN1C(=O)C2(OCCCO2)c2cccc(Cl)c21`: the kinetic solubility came to 15.1 µg/mL (≈ 54 µM).
The molecule `CC1CCCCC1Nc1ncnc2sccc12` (stereo not given) came in with a kinetic solubility greater than 37.1 µg/mL.
`O=C(CNc1cccc(F)c1)N1CCc2ccccc2C1` registered a solubility (kinetic) of 8.4 µg/mL (≈ 29.5 µM).
Under `O=C1CC2(CCN(C(=O)COc3ccc(F)cc3)CC2)Oc2ccccc21` stands greater than 55.4 µg/mL.
Under `Cc1cc(F)ccc1NC(=O)c1cnccn1` stands 29.7 µg/mL (≈ 128 µM); under `CCCCc1ccc(NC(=O)N[C@@H](CC(C)C)C(=O)O)cc1`, greater than 46 µg/mL.
Under `Cc1ccccc1OCC(=O)Nc1ccncc1` stands greater than 36.3 µg/mL; under `Cc1cc(C)cc(C(=O)Nc2ccc(N3CCCC3)cc2)c1`, 0.7 µg/mL (≈ 2.38 µM); under `CN1CCN(CCCCOc2cccc3ccccc23)CC1.Cl`, greater than 50.2 µg/mL.
For `c1nc2ccc(Cc3ccc4nc[nH]c4c3)cc2[nH]1`, the kinetic solubility was 34.3 µg/mL (≈ 138 µM).
In the case of `CC(CC(=O)Nc1cccnc1)c1ccccc1` (stereo not given), the solubility (kinetic) is greater than 36 µg/mL.
Consider `O=C(CCNC(=O)c1ccccc1)OCC(=O)c1ccccc1`, for which the solubility (kinetic) is greater than 46.7 µg/mL.
Under `Cc1ccc(NC(=O)CCCN2C(=S)NC(C)(C)CC2C)cc1` (stereo not given) stands 45.5 µg/mL (≈ 136 µM); under `Cc1nc([N+](=O)[O-])c(C(=O)OCc2ccc(C#N)cc2)n1C`, 17.7 µg/mL (≈ 58.9 µM).
For `NC(=O)c1ccc(NC(=O)COC(=O)c2ccc3ccccc3n2)cc1`, the kinetic solubility came to 18.8 µg/mL (≈ 53.8 µM).
Under `CN1CCN(C(=S)NC(=O)/C=C/c2cccs2)CC1` stands 41.9 µg/mL (≈ 142 µM).
The same measure for `CCc1sc(-c2ccccc2)nc1C(=O)OC`: less than 0.5 µg/mL.
Under `CS(=O)(=O)c1ccc2nc(NC(=O)c3ccccc3)sc2c1` stands 1.5 µg/mL (≈ 4.51 µM); under `CC(C)n1c(SCC(=O)NC2CCCCC2)nnc1-c1ccco1`, greater than 52.3 µg/mL.
In the case of `Cc1ccc(S(=O)(=O)/N=C2/NC(=O)/C(=C\c3ccccc3)S2)cc1`, the solubility (kinetic) is greater than 53.8 µg/mL.
Turning to `O=C(CSc1ccc(Cl)cc1)NCc1ccncc1`, the solubility (kinetic) was greater than 43.9 µg/mL.
Under `CCOc1ccc(Br)cc1C(=S)N1CCCC1` stands 6.2 µg/mL (≈ 19.7 µM); under `COc1ccccc1N1CCN(S(=O)(=O)c2ccc(Cl)cc2)CC1`, 4 µg/mL (≈ 10.9 µM); under `N#Cc1ccc(Oc2cnccn2)cc1`, greater than 29.6 µg/mL.
`O=C(Nc1ccc(Br)c(Br)c1)C1CCCO1` (stereo not given) gave a solubility (kinetic) of 38.8 µg/mL (≈ 111 µM).
Turning to `O=C(NC(=S)Nc1ccccc1Cl)c1cncc(Br)c1`, the solubility (kinetic) came to 1.2 µg/mL (≈ 3.24 µM).
Under `CCC(C(=O)NCc1ccccc1OC)c1ccccc1` (stereo not given) stands 32.6 µg/mL (≈ 115 µM); under `CC(C)C(=O)Nc1ccc(-c2nc3ccccc3c(=O)o2)cc1`, 16.7 µg/mL (≈ 54.2 µM).
Under `COc1cccc(C(=O)Nc2cc(C)on2)c1OC` stands 34 µg/mL (≈ 130 µM); under `Cc1ccccc1C(=O)NC1CCCN(Cc2ccccc2F)C1` (stereo not given), 43.2 µg/mL (≈ 132 µM); under `O=[N+]([O-])c1cccc(Nc2c([N+](=O)[O-])ccc3nonc23)c1`, less than 0.1 µg/mL.
The same measure for `O=C(c1ccccc1F)N1CCN(C(=O)C2CC2)CC1`: greater than 41.4 µg/mL.
Molecule `O=C(COC(=O)/C=C/c1ccco1)Nc1ccccc1` had a kinetic solubility of 13.5 µg/mL (≈ 49.8 µM).
Under `COc1cc(C)cc(OC)c1OCC(=O)Nc1cc(C)on1` stands 6.4 µg/mL (≈ 20.9 µM).
The same measure for `CCS(=O)(=O)N1CCC(C(=O)Oc2ccc(Cl)cc2)CC1`: 9.9 µg/mL (≈ 29.8 µM).
Turning to `O=S(=O)(NC1CCCCCCC1)c1ccccc1`, the solubility (kinetic) was 30 µg/mL (≈ 112 µM). Compared with the last molecule, the solubility kinetic is about 3-fold higher.
Consider `Cc1ccc(O)c(NC(=O)c2cc([N+](=O)[O-])ccc2Cl)c1`, for which the kinetic solubility was found to be 8.5 µg/mL (≈ 27.7 µM).
In turn, `COC(=O)c1c(N)sc(C(=O)NCCc2ccccc2)c1C` came in with a kinetic solubility greater than 47.8 µg/mL.
Molecule `COc1ccc2cc(C#N)c(N3CCOCC3)nc2c1` displayed a solubility (kinetic) of 4.2 µg/mL (≈ 15.6 µM).
The molecule `Cc1cccc(-c2nc3ccccc3c(=O)[nH]2)c1` showed a kinetic solubility of 4.2 µg/mL (≈ 17.8 µM).
The molecule `Cc1ccc(C(=O)Nc2ccc(F)c(S(=O)(=O)N3CCOCC3)c2)s1` registered a solubility (kinetic) of 5.3 µg/mL (≈ 13.8 µM).
For the molecule `C=C(C)c1cccc(C(C)(C)NC(=O)NCCN(CC)CC)c1`, the kinetic solubility was 44 µg/mL (≈ 139 µM). This solubility kinetic lies about 8.3-fold higher than the previous one.
The molecule `Nc1cc(N2CCCC2)ccc1[N+](=O)[O-]` registered a solubility (kinetic) of 2.8 µg/mL (≈ 13.5 µM).
The molecule `Cc1ccc(C(=O)NCCC(=O)N2CCOCC2)cc1` yielded a kinetic solubility greater than 41.5 µg/mL.
`CN1CCN(C(=O)CCc2nc(-c3ccc(Cl)cc3)no2)CC1` gave a solubility (kinetic) greater than 50.2 µg/mL.
`CC(=O)c1cn(CCOc2cc(C)ccc2C)c2ccccc12` came in with a kinetic solubility of less than 0.7 µg/mL.
With `COC(=O)c1ccc(CSc2nc(C(F)F)cc(C)c2C#N)o1`, the kinetic solubility came to 8.3 µg/mL (≈ 24.5 µM).
Molecule `O=C(NCc1ccco1)c1cc([N+](=O)[O-])ccc1N1CCOCC1` came in with a solubility (kinetic) of 46.4 µg/mL (≈ 140 µM).
`COCCCN1CN(Cc2ccco2)CNC1=S` displayed a solubility (kinetic) greater than 40.4 µg/mL.
Turning to `Oc1ccccc1N1CCN(C(=S)NCc2ccccc2)CC1`, the kinetic solubility came out at 22.4 µg/mL (≈ 68.4 µM).
Take `CC(=O)N/C(=C\c1ccccc1)C(=O)OCC(=O)N(C)C1CCS(=O)(=O)C1` (stereo not given): the kinetic solubility is greater than 59.2 µg/mL.
`Cc1ccc(C(=O)N2CCN(Cc3ccccc3)CC2)o1` gave a solubility (kinetic) greater than 42.7 µg/mL.
The molecule `CCO/C=C1/C(=O)N(c2ccccc2OC)C(=O)c2ccccc21` yielded a solubility (kinetic) greater than 48.5 µg/mL.
`Cc1cc(=O)oc2cc(OCC(=O)Nc3cccnc3)ccc12` yielded a solubility (kinetic) of 10.5 µg/mL (≈ 33.8 µM).
Under `Cc1ccc(S(=O)(=O)CC(=O)c2ccccc2[N+](=O)[O-])cc1` stands 42.8 µg/mL (≈ 134 µM).
With `CCc1ccccc1NC(=O)c1cc([N+](=O)[O-])ccc1N1CCOCC1`, the solubility (kinetic) is greater than 53.3 µg/mL.
In the case of `O=C(Cc1ccccc1[N+](=O)[O-])NCCC1=CCCCC1`, the kinetic solubility amounted to 26.7 µg/mL (≈ 92.6 µM).
`Cc1cccc(C(=O)OCC(=O)NC2CC2)c1O`: the kinetic solubility is greater than 37.4 µg/mL.
`CC(=O)c1nc2ccccc2n1CCc1ccccc1`: the solubility (kinetic) was determined as 27.5 µg/mL (≈ 104 µM).
`CC(=O)NC1C(=O)N(Cc2ccccc2)c2ccc(Br)cc21` (stereo not given) came in with a kinetic solubility of 18 µg/mL (≈ 50.1 µM).
Consider `C[C@H](NC(=O)c1ccc2c(c1)OCO2)c1nnc2ccccn12`, for which the solubility (kinetic) is greater than 46.5 µg/mL.
The same measure for `COc1cc(NC(=O)COC(=O)c2ccc([N+](=O)[O-])s2)cc(OC)c1OC`: 10.4 µg/mL (≈ 26.2 µM); for `COC(=O)CNC(=O)COC(=O)/C=C/c1ccc(F)cc1`: greater than 44.3 µg/mL.
The same measure for `O=C(Nc1nc2ccccc2[nH]1)c1ccc(Cl)cc1`: 1.8 µg/mL (≈ 6.62 µM); for `CCN(Cc1ccncc1)C(=O)CSc1ccc2ccccc2c1`: 32.6 µg/mL (≈ 96.9 µM).
In the case of `CCOc1ccc(N2CC(C(=O)N3CCCCC3)CC2=O)cc1` (stereo not given), the solubility (kinetic) is 46.4 µg/mL (≈ 147 µM).
As to `COc1cc(OC)cc(C(=O)NCCNC(=O)c2ccccn2)c1`, the kinetic solubility is greater than 49.4 µg/mL.
Under `Cc1ccc(S(=O)(=O)N2CCC(C(=O)NCC3CC3)CC2)cc1` stands 31.7 µg/mL (≈ 94.2 µM); under `CC(=O)N1CCn2c3c(c4cc(C)ccc42)CCCC31` (stereo not given), 38.6 µg/mL (≈ 144 µM); under `COc1ccc(NC(=O)Nc2ccc(Br)c(C)c2)cc1`, less than 0.4 µg/mL.
For the molecule `Cc1noc(C)c1COc1ccc(C(=O)Nc2ccccc2)cc1`, the solubility (kinetic) was found to be 0.8 µg/mL (≈ 2.48 µM).
`CC(=O)N1CCN(Cc2nc(-c3cccc(Cl)c3)no2)CC1`: the kinetic solubility is greater than 48.1 µg/mL.
For the molecule `CCCNC(=O)CN(C)CC(=O)Nc1ccccc1C#N`, the kinetic solubility was greater than 43.3 µg/mL.
The same measure for `COc1cccc(C(=O)Nc2ccc3c(C)cc(=O)oc3c2)c1`: less than 0.7 µg/mL; for `COc1cccc(/C=C/C(=O)OCC(=O)NCc2ccc3c(c2)OCO3)c1`: 3.3 µg/mL (≈ 8.93 µM); for `O=C(Nc1ccc2c(c1)OCO2)c1ccccn1`: 31.4 µg/mL (≈ 130 µM).
Molecule `COC(=O)C(CC(=O)O)NCc1ccco1` (stereo not given) gave a solubility (kinetic) greater than 34.1 µg/mL.
The same measure for `O=C(CCS(=O)(=O)c1ccc(F)cc1)N1CCOCC1`: greater than 45.2 µg/mL; for `COc1ccc(OC)c(N=Cc2c(O)[nH]c(=O)[nH]c2=O)c1`: 7.1 µg/mL (≈ 24.4 µM).
Consider `Cc1[nH]c(=S)c(C#N)c(-c2ccccc2)c1C(=O)Nc1ccccc1`, for which the kinetic solubility was greater than 51.8 µg/mL.
Regarding `Cc1ccc(C(=O)COC(=O)c2nc(Cl)ccc2Cl)cc1`, the kinetic solubility came out at 48.4 µg/mL (≈ 149 µM).
Molecule `COc1ccccc1NC(=O)c1cnc(SC)nc1` returned a kinetic solubility greater than 41.3 µg/mL.
Take `Cc1ccc(C(=O)NC2=NCCS2)cc1`: the kinetic solubility worked out at 32.9 µg/mL (≈ 149 µM).
As to `CCCCS(=O)(=O)N1CCCC(C(=O)N2CCOCC2)C1` (stereo not given), the solubility (kinetic) was 42.4 µg/mL (≈ 133 µM).
`COc1ccc(C(=O)NC2CCCc3ccccc32)c(OC)c1OC` (stereo not given) registered a kinetic solubility of 41.9 µg/mL (≈ 123 µM).
As for `O=C(/C=C/c1ccco1)Nc1ccc2c(c1)OCO2`, the kinetic solubility stood at 36.8 µg/mL (≈ 143 µM).
Molecule `C=CCN(c1ccccc1OC)S(=O)(=O)c1cccc(C(=O)OCC(=O)N2CCOCC2)c1` yielded a solubility (kinetic) greater than 71.2 µg/mL.
`N#Cc1cnc(NCc2ccc(Cl)cc2Cl)nc1`: the kinetic solubility worked out at 0.5 µg/mL (≈ 1.79 µM).
On to `COc1cc(SC)ccc1C(=O)NCCc1c[nH]c2ccccc12`, for which the kinetic solubility was 6.1 µg/mL (≈ 17.9 µM).
The same measure for `Nc1nc(NCc2ccco2)nc(NC2CCCCC2)c1[N+](=O)[O-]`: 0.3 µg/mL (≈ 0.903 µM).
The same measure for `O=C(/C=C/c1ccc(Cl)cc1)Nc1ccc(N2CCOCC2)cc1`: less than 0.4 µg/mL.
For the molecule `COC(=O)/C=C1\SC(=NC(=O)c2ccc(OC)cc2)NC1=O`, the solubility (kinetic) turned out to be 12 µg/mL (≈ 37.5 µM).
The same measure for `CC(NC(=O)c1cc2cc(F)ccc2[nH]1)c1ccccc1` (stereo not given): 4.2 µg/mL (≈ 14.9 µM); for `COc1cc(Cl)c(S(=O)(=O)N2CCCC2)cc1Cl`: 42.1 µg/mL (≈ 136 µM); for `COc1ccc(Cc2n[nH]c(=S)o2)cc1`: greater than 33.3 µg/mL.
The same measure for `N#Cc1ccc2c(c1)nc1ccccn12`: greater than 29 µg/mL; for `Cc1ccc(S(=O)(=O)N(C)C)cc1NC(=O)C1CCC1`: 39.7 µg/mL (≈ 134 µM).
